Data published in ChEMBL document CHEMBL3507680, “University of Dundee, Gates Library screen for HepG2 cell viability”.

Assay: Human HepG2 cell viability assay in 384 well format
Type: toxicity, cell-based
Parameters: dose 125 nL, time 70.5 hour; concentration not given beside the values
Settings: HepG2 cells, read-out: Inhibition

| SMILES | cytotoxicity at 70.5 h [%] |
| --- | --- |
| CN(CCCC#N)C1CCCN(Cc2noc(C3CC3)n2)C1 (configuration not stated) | 9.15 |
| COCCN1C(=O)CC(N2CCN(c3ccc(OC)cc3)CC2)C1=O (configuration not stated) | -7.1 |
| COc1ccc(C2CCCCCN2S(=O)(=O)N(C)C)cc1 (configuration not stated) | -7.96 |
| COc1cc(CN(C)C(=O)Cc2c(C)nn(C)c2C)ccc1OC(F)F | 3.07 |
| CN1CCN(CCCNC(=O)c2cc(Cl)c3c(c2)OCO3)CC1 | -6.03 |
| O=C(Nc1cccc(CN2CCOC2=O)c1)N1CCSCC1 | -10.5 |
| CC(C)NC(=O)c1nnn(-c2cccc(C(F)(F)F)c2)c1C1CC1 | 10.4 |
| CC1CCCN(CCNC(=O)c2cncnc2C(C)C)C1 (configuration not stated) | -4.07 |
| CN(C)C(=O)c1cccc(NC(=O)N(CCO)Cc2ccsc2)c1 | -4.45 |
| CC(C)CN1CCC(NC(=O)c2ccc(F)cc2I)CC1 | 11.3 |
| CCCN(CC(=O)NC)C(=O)c1ccc(-c2ccsc2)nc1C | -4.88 |
| COc1ccc(CNC(=O)NC2CCC(O)CC2)c(C(F)(F)F)c1 (configuration not stated) | -4.62 |
| COc1ccc(CNC(=O)NCC2CCOC2)c(C(F)(F)F)c1 (configuration not stated) | -2.53 |
| Cc1nc(C)n(CC2CN(CC(=O)Nc3cccnc3)CCO2)n1 (configuration not stated) | -2.68 |
| O=C(CCc1cscn1)NS(=O)(=O)c1ccc2c(c1)CCC2 | 8.97 |
| CCc1cnc(CN(C)C2CCN(CCS(C)(=O)=O)C2)o1 (configuration not stated) | -6.45 |
| N#CC1(C(=O)Nc2ccc(OC(F)F)cc2)CCCC1 | 8 |
| Cc1cc(F)ccc1CNCCn1cccn1 | -1.75 |
| COc1cccc(CNCCc2cc(F)cc3c2OCOC3)c1 | 14.9 |
| COc1ccc(C2CCCN2S(=O)(=O)N(C)CC(C)C)cc1 (configuration not stated) | -1.91 |
| Cc1ccc(C(=O)N2CCCC2c2nnc3n2CCCCC3)o1 (configuration not stated) | -7.2 |
| O=C(CN1CCCC1Cn1cncn1)NC(C1CC1)C1CC1 (configuration not stated) | -4.54 |

| SMILES | cytotoxicity at 70.5 h [%] |
| --- | --- |
| Cc1nc(CN2CCC(N(C)Cc3noc(C(C)C)n3)C2)cs1 (configuration not stated) | 33.4 |
| Cc1nn(C)c(C)c1C1COCCN1C(=O)Cc1cccc(F)c1 (configuration not stated) | 12.5 |
| O=C(CC(F)(F)F)N1CCc2onc(Cn3cccn3)c2C1 | -13.4 |
| O=C(Cc1ccccn1)N1C[C@H]2CCC[C@@]2(COc2ccccn2)C1 | 6.94 |
| O=C1CC(c2ccncc2)C2(CCN(Cc3nccs3)CC2)N1 (configuration not stated) | -7.32 |
| O=C1CC(c2ccncc2)C2(CCN(Cc3cccnc3)CC2)N1 (configuration not stated) | -6.24 |
| CNC(=O)[C@H]1C[C@@H]2CCN(Cc3ccc4c(c3)OCO4)C[C@@H]2O1 | -7.08 |
| CN(C)C(=O)[C@H]1C[C@@H]2CCN(Cc3ccncc3)C[C@H]2O1 | -7.62 |
| O=C(C1CCC1)N1CCc2onc(Cn3cccn3)c2C1 | 17.9 |
| c1cnc(N2CCO[C@H]3[C@H](OCc4cccnc4)CC[C@@H]32)nc1 | 13.6 |
| c1ccc(CO[C@H]2CC[C@H]3[C@H]2OCCN3CCN2CCCCC2)nc1 | 20.6 |
| CCC(CC)NC(=O)c1ccc2nnc(C3CCN(S(C)(=O)=O)C3)n2c1 (configuration not stated) | 6.79 |
| COc1cc(N2C[C@H](OCc3cccnc3)[C@H]3OCCC[C@H]32)ncn1 | 3.36 |
| O=C(NC1CCCC1)N1CCC2(CC1)CC(Oc1cccnc1)CO2 (configuration not stated) | 26.9 |
| Cc1cccc(N2CCC3(CCCN(C(=O)Cc4cccnc4)C3)C2)n1 (configuration not stated) | 21.3 |
| Cc1ccc(N2CCC3(CCCN(C(=O)c4cnccn4)C3)C2)nn1 (configuration not stated) | 1.5 |
| Cc1ccc(N2CCC3(CCN(C(=O)c4ccsc4)CC3)C2)nn1 | 4.86 |
| CNC(=O)CC1CC2(CCN(S(C)(=O)=O)CC2)c2ccccc21 (configuration not stated) | -0.621 |
| Cn1cc(CN2CCCC3(CCN3S(C)(=O)=O)C2)cn1 (configuration not stated) | 7.75 |
| CC(=O)c1cnc(NCCc2csc(-c3cnccn3)n2)nc1C | -10.8 |
| CC(C)Cc1ncc2c(n1)CN(c1cc(N3CCCC3)nc(N)n1)C2 | 1.59 |
| COc1ccnc(N2CCC3(CC2)[C@H](O)C[C@@H]3OCCN(C)C)n1 | 2.31 |

| SMILES | cytotoxicity at 70.5 h [%] |
| --- | --- |
| O=C(c1ccc(-n2cnnc2)cc1Cl)N1CCCC2(CCNC2)C1 (configuration not stated) | 2.05 |
| O=C(c1ncoc1C1CC1)N1CCN(CCOc2ccccc2)CC1 | 26 |
| Cc1cc(C)n(CCCN(C)C(=O)C2COc3ccccc3C2)n1 (configuration not stated) | 26.5 |
| COc1ccccc1OC1CN(C(=O)C2CNCC(=O)N2)C1 (configuration not stated) | -9.64 |
| COc1ccccc1-c1ncc(CN2CCC3(CCNCC3)CC2)cn1 | -7.68 |
| Cc1ccc(C)c(OCCN(C)C(=O)CCc2cn[nH]c2)c1 | -12.7 |
| Cc1nccn1CCN(C)C(=O)C1CCN(C(=O)C2CCC2)CC1 | 11.3 |
| Cc1cc(CNc2cncc(C(=O)N(C)C)n2)c2[nH]c(C)c(C)c2c1 | 27.8 |
| Cc1cc(C(=O)N2C[C@H](CO)C[C@H](CN3CCOCC3)C2)nc(C)n1 | -7.67 |
| CC(=O)N1CCc2c(nc(N(C)C)nc2NC(C)Cc2cccs2)C1 (configuration not stated) | -6.58 |
| COc1nc2c(cc1C(=O)N1CC[C@H](CO)[C@@H](O)C1)CCC2 | -16.1 |
| CN(CC1CCOC1)S(=O)(=O)c1cccc(C(=O)N2CCCCCC2)c1 (configuration not stated) | -14.8 |
| CCc1nc(N)nc(N(C)Cc2nncn2CCOC)c1C | 11.8 |
| Cc1ccc(CN(CCN(C)C)C(=O)Nc2cnn(C)c2)s1 | -7.54 |
| CCOc1cc2c(cc1CN1CCC3(CC1)CNC(=O)C3)CCC2 | 23.3 |
| CCC[C@H]1CN(S(C)(=O)=O)C[C@@H]1NC(=O)Cc1ccc(OC)cc1 | 9.24 |
| Cc1nsc(NC(=O)N2CCc3sccc3C2)n1 | -7.28 |
| C[C@@H]1CN(C2CCN(c3ccccc3F)CC2)CC[C@]1(C)O | -5.09 |
| CN1CCC(N(CCc2ccccc2)C(=O)c2cc[nH]c2)CC1 | -7.32 |
| CC(C)NC(=O)N1CCCC(Cn2cc(-c3ccc(F)cc3)nn2)C1 (configuration not stated) | 23.4 |
| O[C@@H]1CN(c2cnc3ccccc3n2)CC[C@H]1c1ccc2c(c1)OCO2 | 21 |
| Cc1ncsc1CCN(C)C(=O)c1ccc(Cn2cnnn2)cc1 | 3.1 |

| SMILES | cytotoxicity at 70.5 h [%] |
| --- | --- |
| COc1cccc(CN2C[C@H]3CC[C@H]2C3)c1OCCN1CCOCC1 | -2.04 |
| Cc1cnc(N(C)CCCc2cnn(C)c2)nc1N(C)C | 14.8 |
| CCn1nc(C)c(C(C)Nc2cc(C3CCNCC3)nc(C)n2)c1C (configuration not stated) | -23.1 |
| O=C(c1ccncc1)N1CCC(Oc2cccc(C(F)(F)F)c2)CC1 | -5.79 |
| CN(C)C(=O)[C@H]1C[C@H]2[C@H](CCN2Cc2ccc3c(c2)OCO3)O1 | -14.7 |
| Cc1ccc(CN2CC[C@H]3C[C@H](C(=O)N(C)C)O[C@H]3C2)cc1 | -17.2 |
| O=C(c1ccco1)N1C[C@H]2CCCN(Cc3nccs3)[C@H]2C1 | -11.3 |
| O=C(c1cnccn1)N1CCC2(CC1)CCN(Cc1ccccn1)C2=O | 19.9 |
| Cc1ccc(C(=O)N2Cc3c(CN(C)C)nn(C)c3C2)cc1C | 4.85 |
| Cc1ccc(C(=O)N2Cc3c(CN4CCCCC4)nn(C)c3C2)o1 | 6.3 |
| O=C1COC2(CCN(C(=O)c3ccoc3)CC2)CN1Cc1ccccn1 | -0.827 |
| CN(C)C(=O)N1CCC2(CC1)CCN(Cc1ccccn1)C2=O | 25.9 |
| CN(C)C(=O)N1CCC2(CC1)CN(Cc1ccccn1)C(=O)CO2 | 24.4 |
| O=C1COC2(CCN(C(=O)C3CC=CC3)CC2)CN1Cc1cccnc1 | 12.1 |
| Cn1nc(CN2CCCCC2)c2c1CN(C(=O)c1cccc(C#N)c1)C2 | 15.7 |
| Cc1cccc(-c2nnn3c2COC(CNCc2nccs2)C3)c1 (configuration not stated) | -3.21 |
| Cc1nc(CN2CCCn3c(nc(Cn4cncn4)cc3=O)C2)cs1 | 22.5 |
| Cc1oncc1C(=O)NCc1cc(=O)n2c(n1)CN(CC1CC1)CCC2 | 17.8 |
| CN1CC(=O)N(c2ccccc2)CC12CCN(C(=O)CC1CC1)C2 (configuration not stated) | 8.17 |
| Cc1ccc(N2CCC3(CCN(C(=O)c4ccsc4)C3)CC2)nn1 | -12.9 |
| Cc1noc(C)c1CN1CCO[C@H]2CN(C3CCOCC3)C[C@H]21 | 21.3 |
| COCCN1CCCn2c(nc(Cn3cncn3)cc2=O)C1 | 19.3 |

| SMILES | cytotoxicity at 70.5 h [%] |
| --- | --- |
| Cc1ccc(N2CCC3(CCN(C(=O)c4ccnnc4)CC3)CC2)nn1 | 2.95 |
| O=C(NCc1ccco1)[C@@H]1CCO[C@@H]2CCN(C3CCOCC3)C[C@H]21 | 4.93 |
| CN1CC(=O)N(c2ccsc2)CC12CCN(C(=O)N1CCCC1)C2 (configuration not stated) | -7.42 |
| Cc1cc(C(=O)N2CCC3(C2)CN(c2ccsc2)C(=O)CN3C)[nH]n1 (configuration not stated) | -7.61 |
| O=C(NCc1ccco1)[C@@H]1CCO[C@@H]2CCN(CC3CC3)C[C@@H]21 | -6.8 |
| CN1CCC2(CC1)CN(C(=O)c1cnccn1)Cc1ccccc12 | -5.07 |
| CN(C)C[C@H]1OC[C@@H]2CCN(S(=O)(=O)c3ccc(F)cc3)C[C@@H]21 | -7.32 |
| CN1CC(=O)N(c2ccccc2)CC12CCN(C(=O)c1cccs1)C2 (configuration not stated) | -5.55 |
| CN1CCOCC2(CCCN(C(=O)Cc3ccncc3)C2)C1 (configuration not stated) | -11.6 |
| CCOCC1CN(CC2CC2)Cc2nn(C)cc21 (configuration not stated) | -4.39 |
| Cc1cccc(CN2C[C@@H]3COC[C@]3(CNC(=O)c3ccno3)C2)n1 | 7.45 |
| Cn1nnc2c1C(COCc1cccnc1)CN(Cc1ccoc1)C2 (configuration not stated) | -16.5 |
| Cc1nc(CO[C@H]2CN(Cc3ccccn3)[C@@H]3CCCO[C@H]23)cs1 | 6.92 |
| Cc1nc(CN2CCO[C@H]3[C@@H](OCc4cccnc4)CC[C@@H]32)cs1 | 4.04 |
| Cc1noc(C)c1CN1CCO[C@H]2CN(Cc3nccn3C)C[C@H]21 | 0.477 |
| c1cnc(N2CCC3(CCN(CC4CCCC4)CC3)C2)nc1 | -1.07 |
| Cc1noc(C)c1CN1CCO[C@H]2CN(Cc3cnn(C)c3)C[C@H]21 | -4.66 |
| COc1ncccc1C(=O)N1CC[C@]2(C[C@@H](Oc3cccnc3)CO2)C1 | 25.3 |
| Cc1ccc(C(=O)N2CCN3C[C@H](Oc4cccnc4)C[C@H]3C2)cn1 | 4.6 |
